{"source": "patent US20040005537A1", "about": "“Method of identifying toxic agents using differential gene expression” (priority 2000, published 2004)", "system": "rat heart tissue", "assay": "GENECALLING differential gene expression analysis after dosing of serotonin modulating agents", "type": "in vivo, Sprague Dawley rats", "method_in_brief": "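GENECALLING profiling of cDNA from total RNA, keeping gene fragments modulated beyond ±1.5-fold. Tissue collected 24 h after final dosing of serotonin modulating agents; control rats received sterile water or canola oil.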"}
{"smiles": "CNCCC(Oc1ccc(C(F)(F)F)cc1)c1ccccc1", "note": "(stereo not shown) [fluoxetine]", "values": [{"measurement": "Effects on Transcription Level: Novel gene fragment, 467 bp, 94% SI to mouse gelsolin [J04953]", "setting": "CARDIOTOX 70", "result": "−3.8", "unit": "fold"}, {"measurement": "Effects on Transcription Level: Novel gene fragment, 535 bp, 90% SI to mouse slow/cardiac troponin C [M29793]", "setting": "CARDIOTOX 71", "result": "−2.0", "unit": "fold"}, {"measurement": "Effects on Transcription Level: Novel gene fragment, 445 bp, 85% SI to human skeletal muscle alpha 2 actinin [M86406]", "setting": "CARDIOTOX 72", "result": "−1.6", "unit": "fold"}, {"measurement": "Effects on Transcription Level: Novel gene fragment, 246 bp, 89% SI to mouse ponsin-1 [AF078667]", "setting": "CARDIOTOX 73", "result": "−2.5", "unit": "fold"}, {"measurement": "Effects on Transcription Level: Novel gene fragment, 126 bp, 77% SI to human DNA sequence from cosmid V311G7, between markers DXS366 and DXS87 on chromosome X [Z69304]", "setting": "CARDIOTOX 74", "result": "+2.0 fold"}, {"measurement": "Effects on Transcription Level: Novel gene fragment, 370 bp", "setting": "CARDIOTOX 75", "result": "−1.9", "unit": "fold"}, {"measurement": "Effects on Transcription Level: Novel gene fragment, 337 bp, 78% SI to novel human protein AHNAK [M80899]", "setting": "CARDIOTOX 76", "result": "−2.5", "unit": "fold"}, {"measurement": "Effects on Transcription Level: Novel gene fragment, 100 bp, 93% SI to human KIAA0750 protein [ABO18293]", "setting": "CARDIOTOX 77", "result": "−7.6", "unit": "fold"}, {"measurement": "Effects on Transcription Level: Novel gene fragment, 44 bp", "setting": "CARDIOTOX 78", "result": "−5.6", "unit": "fold"}, {"measurement": "Effects on Transcription Level: Novel gene fragment, 698 bp, 93% SI to mouse plenty-of-prolines-101 [AF062655]", "setting": "CARDIOTOX 79", "result": "−2.3", "unit": "fold"}, {"measurement": "Effects on Transcription Level: Novel gene fragment, 660 bp, 84% SI to mouse membrane protein TMS-2 [AF181685]", "setting": "CARDIOTOX 80", "result": "−4.1", "unit": "fold"}, {"measurement": "Effects on Transcription Level: Novel gene fragment, 115 bp", "setting": "CARDIOTOX 81", "result": "−8.1", "unit": "fold"}, {"measurement": "Effects on Transcription Level: Novel gene fragment, 294 bp, 95% SI to mouse Ndr1 related protein Ndr2 [AB033921]", "setting": "CARDIOTOX 82", "result": "−2.5", "unit": "fold"}, {"measurement": "Effects on Transcription Level: Novel gene fragment, 198 bp", "setting": "CARDIOTOX 83", "result": "+2.5 fold"}, {"measurement": "Effects on Transcription Level: Novel gene fragment, 730 bp, 86% SI to mouse E800 [Y10968]", "setting": "CARDIOTOX 84", "result": "−1.8", "unit": "fold"}, {"measurement": "Effects on Transcription Level: Novel gene fragment, 294 bp, 98% SI to cysteine conjugate beta-lyase [S61960]", "setting": "CARDIOTOX 85", "result": "−1.8", "unit": "fold"}, {"measurement": "Effects on Transcription Level: Aconitase", "setting": "CARDIOTOX 86, GenBank A1243266", "result": "−3.9", "unit": "fold"}, {"measurement": "Effects on Transcription Level: Ribosomal protein L7", "setting": "CARDIOTOX 87, GenBank M17422", "result": "+2.7 fold"}, {"measurement": "Effects on Transcription Level: Ribosomal protein L9", "setting": "CARDIOTOX 88, GenBank X51706", "result": "+6.0 fold"}, {"measurement": "Effects on Transcription Level: Ribosomal protein L12", "setting": "CARDIOTOX 89, GenBank X53504", "result": "−2.2", "unit": "fold"}, {"measurement": "Effects on Transcription Level: 18S, 5.8S, and 28S ribosomal RNA's", "setting": "CARDIOTOX 90, GenBank V01270", "result": "+7 fold"}, {"measurement": "Effects on Transcription Level: Pyruvate dehydrogenase kinase 2 (PDK2)", "setting": "CARDIOTOX 91, GenBank U10357", "result": "−11.3", "unit": "fold"}, {"measurement": "Effects on Transcription Level: D-Binding Protein (DBP)", "setting": "CARDIOTOX 92, GenBank J03179", "result": "−1.5", "unit": "fold"}, {"measurement": "Effects on Transcription Level: Lipoprotein lipase", "setting": "CARDIOTOX 93, GenBank L03294", "result": "−3.7", "unit": "fold"}, {"measurement": "Effects on Transcription Level: Non-neuronal enolase", "setting": "CARDIOTOX 94, GenBank X02610", "result": "+3.1 fold"}, {"measurement": "Effects on Transcription Level: Glycogen phosphorylase (muscle isozyme)", "setting": "CARDIOTOX 95, GenBank L10669", "result": "−3.0", "unit": "fold"}, {"measurement": "Effects on Transcription Level: Cytochrome c oxidase subunit IV", "setting": "CARDIOTOX 96, GenBank X14209", "result": "+8.0 fold"}, {"measurement": "Effects on Transcription Level: Alpha-globin", "setting": "CARDIOTOX 97, GenBank M17083", "result": "+2.9 fold"}, {"measurement": "Effects on Transcription Level: Beta-globin", "setting": "CARDIOTOX 98, GenBank X06701", "result": "+4.0 fold"}, {"measurement": "Effects on Transcription Level: Myoglobin", "setting": "CARDIOTOX 99, GenBank AF197916", "result": "+2.2 fold"}, {"measurement": "Effects on Transcription Level: Titin", "setting": "CARDIOTOX 100, GenBank L38717", "result": "+1.6 fold"}, {"measurement": "Effects on Transcription Level: Skeletal muscle actin", "setting": "CARDIOTOX 101, GenBank V01218", "result": "−13.1", "unit": "fold"}, {"measurement": "Effects on Transcription Level: Myosin light chain 2 (MLC2)", "setting": "CARDIOTOX 102, GenBank M11851", "result": "+3.6 fold"}, {"measurement": "Effects on Transcription Level: Alpha cardiac myosin heavy chain", "setting": "CARDIOTOX 103, GenBank X15938", "result": "−4.8", "unit": "fold"}, {"measurement": "Effects on Transcription Level: Troponin I", "setting": "CARDIOTOX 104, GenBank U77354", "result": "+1.6 fold"}, {"measurement": "Effects on Transcription Level: Cardiac calsequestrin", "setting": "CARDIOTOX 105, GenBank AF001334", "result": "−2.4", "unit": "fold"}, {"measurement": "Effects on Transcription Level: Sulfated glycoprotein 2", "setting": "CARDIOTOX 106, GenBank M16975", "result": "−2.2", "unit": "fold"}, {"measurement": "Effects on Transcription Level: Aquaporin 7", "setting": "CARDIOTOX 107, GenBank AB000507", "result": "+1.8 fold"}, {"measurement": "Effects on Transcription Level: Carnitine/acylcarnitine carrier protein", "setting": "CARDIOTOX 108, GenBank X97831", "result": "−2.6", "unit": "fold"}, {"measurement": "Effects on Transcription Level: Glu-Pro Dipeptide Repeat", "setting": "CARDIOTOX 109, GenBank U40628", "result": "−3.1", "unit": "fold"}, {"measurement": "Effects on Transcription Level: Cystatin beta", "setting": "CARDIOTOX 110, GenBank X54737", "result": "+2.5 fold"}, {"measurement": "Effects on Transcription Level: Novel gene fragment, 593 bp, 90% SI to human calcineurin B-like protein [Z08983]", "setting": "CARDIOTOX 111", "result": "+2.1 fold"}, {"measurement": "Effects on Transcription Level: Novel gene fragment, 179 bp, 88% SI to human titin [X90568]", "setting": "CARDIOTOX 112", "result": "−1.8", "unit": "fold"}, {"measurement": "Effects on Transcription Level: Novel gene fragment, 700 bp, 91% SI to mouse periplakin (PPL) [AF116523]", "setting": "CARDIOTOX 113", "result": "+2.1 fold"}, {"measurement": "Effects on Transcription Level: Long chain acyl-CoA dehydrogenase (LCAD)", "setting": "CARDIOTOX 114, GenBank J05029", "result": "+1.6 fold"}, {"measurement": "Effects on Transcription Level: Sulfated glycoprotein 1 (SGP-1)", "setting": "CARDIOTOX 115, GenBank M19936", "result": "−2.1", "unit": "fold"}, {"measurement": "Effects on Transcription Level: Catalase", "setting": "CARDIOTOX 116, GenBank M11670", "result": "+1.9 fold"}, {"measurement": "Effects on Transcription Level: Alpha-fodrin (A2A) (Nonerythroid spectrin alpha subunit)", "setting": "CARDIOTOX 117, GenBank AF084186", "result": "−1.6", "unit": "fold"}, {"measurement": "Effects on Transcription Level: Cardiac specific sodium channel alpha-subunit", "setting": "CARDIOTOX 118, GenBank M27902", "result": "−2.1", "unit": "fold"}, {"measurement": "Effects on Transcription Level: Glu-Pro Dipeptide Repeat", "setting": "CARDIOTOX 119, GenBank U40628", "result": "+2.7 fold"}, {"measurement": "Effects on Transcription Level: Novel gene fragment, 200 bp, 64% SI to human KIAA0733 protein [AB018316]", "setting": "CARDIOTOX 120", "result": "−1.6", "unit": "fold"}, {"measurement": "Effects on Transcription Level: RNA polymerase II transcription factor SIII (p18 subunit)", "setting": "CARDIOTOX 121, GenBank L42855", "result": "+1.8 fold"}, {"measurement": "Effects on Transcription Level: Protein-tyrosine phosphalase (LRP)", "setting": "CARDIOTOX 122, GenBank L01702", "result": "+1.5 fold"}, {"measurement": "Effects on Transcription Level: Skeletal muscle selenoprotein W (SelW)", "setting": "CARDIOTOX 123, GenBank U25264", "result": "−1.6", "unit": "fold"}, {"measurement": "Effects on Transcription Level: Sarcoplasmic reticulum 2+-Ca-ATPase", "setting": "CARDIOTOX 124, GenBank X15635", "result": "−1.8", "unit": "fold"}, {"measurement": "Effects on Transcription Level: Ribosomal protein S7", "setting": "CARDIOTOX 125, GenBank X53377", "result": "+1.3 fold"}, {"measurement": "Effects on Transcription Level: Ribophorin I", "setting": "CARDIOTOX 126, GenBank X05300", "result": "+1.4 fold"}, {"measurement": "Effects on Transcription Level: Beta cardiac myosin heavy chain", "setting": "CARDIOTOX 127, GenBank X15939", "result": "+1.4 fold"}, {"measurement": "Effects on Transcription Level: ADP-ribosylation factor 1", "setting": "CARDIOTOX 128, GenBank L12380", "result": "−1.0", "unit": "fold"}, {"measurement": "Effects on Transcription Level: Laminin receptor", "setting": "CARDIOTOX 129, GenBank U04942", "result": "−1.5", "unit": "fold"}, {"measurement": "Effects on Transcription Level: Novel gene fragment, 206 bp, 89% SI to human seryl-tRNA synthetase [X91257]", "setting": "CARDIOTOX 130", "result": "+1.7 fold"}, {"measurement": "Effects on Transcription Level: Annexin VI", "setting": "CARDIOTOX 131, GenBank X86086", "result": "+1.3 fold"}, {"measurement": "Effects on Transcription Level: Novel gene fragment, 325 bp, 90% SI to mouse N-RAP [U76618]", "setting": "CARDIOTOX 132", "result": "+1.4 fold"}, {"measurement": "Effects on Transcription Level: Novel gene fragment, 61 bp (CARDIOTOX 134)", "setting": "LD10 dose for three days", "result": "−1.2", "unit": "fold"}, {"measurement": "Effects on Transcription Level: Novel gene fragment, 337 bp (CARDIOTOX 133)", "setting": "LD10 dose for three days", "result": "+1.0 fold"}, {"measurement": "Effects on Transcription Level: Novel gene fragment, 378 bp, 88% SI to human coatomer protein (COPA) [U24105] (CARDIOTOX 138)", "setting": "LD10 dose for three days", "result": "−1.1", "unit": "fold"}, {"measurement": "Effects on Transcription Level: Long chain 3-ketoacyl-CoA thiolase (CARDIOTOX 136)", "setting": "LD10 dose for three days, GenBank D16479", "result": "−1.1", "unit": "fold"}, {"measurement": "Effects on Transcription Level: TATA-binding protein interacting protein 120 (TIP120) (CARDIOTOX 135)", "setting": "LD10 dose for three days, GenBank D87671", "result": "+1.4 fold"}, {"measurement": "Effects on Transcription Level: Serine protease (CARDIOTOX 139)", "setting": "LD10 dose for three days, GenBank D88250", "result": "+1.5 fold"}, {"measurement": "Effects on Transcription Level: Thymosin beta-4 (CARDIOTOX 137)", "setting": "LD10 dose for three days, GenBank M34043", "result": "+1.4 fold"}]}
